Measured values taken from patent publication US20150173371A1 (Dow AgroSciences LLC, priority 2013, published 2015).
Several values for one entry are separate records, joined by “and”; a condition that tells them apart may be missing. Equal entries are not always repeated. Where two headings read alike, the source gives them in different places.

Legend:
[1] = tested on: Ipomoea species (morningglory, IPOSS); assay: Field trial, % visual weed control; type: in vivo; conditions: 8DAA, 840 g ae/ha alone
Source text: (§1) Boom sizes varied from 2-3 m in width.

[2] = tested on: Euphorbia heterophylla (wild poinsettia, EPHHL); assay: Field trial, % visual weed control; type: in vivo; conditions: 28DAA, 615 g ae/ha alone
Source text: as §1

[3] = tested on: Jacquemontia tamnifolia (smallflower morningglory, IAQTA); assay: Field trial, % visual weed control; type: in vivo; conditions: 7DAA, 1120 g ae/ha alone
Source text: as §1

[4] = tested on: Tridax procumbens L (tridax daisy, TRQPR); assay: Field trial, % visual weed control; type: in vivo; conditions: 16DAA, 800 g ae/ha alone
Source text: as §1

[5] = tested on: Glycine max (soybean, glyphosate tolerant, GLXMA); assay: Field trial, % visual weed control; type: in vivo
Source text: as §1

[6] = tested on: Commelina benghalensis (hairy wandering Jew, COMBE); assay: Field trial, % visual weed control; type: in vivo; conditions: 800 g ae/ha alone
Source text: as §1

[7] = tested on: Sesbania exaltata (hemp sesbania, SEBEX); assay: Field trial, % visual weed control; type: in vivo; conditions: 8DAA, 840 g ae/ha alone
Source text: as §1

[8] = tested on: Euphorbia hirta (garden spurge, EPHHI); assay: Field trial, % visual weed control; type: in vivo
Source text: as §1

[9] = tested on: Ipomoea grandifolia (Corda-de-viola, IAQGR); assay: Field trial, % visual weed control; type: in vivo; conditions: 17DAA, 800 g ae/ha alone
Source text: as §1

[10] = tested on: Raphanus raphanistrim (wild radish, RAPRA); assay: Field trial, % visual weed control; type: in vivo; conditions: 6DAA, 800 g ae/ha alone
Source text: as §1

[11] = tested on: Spermacoce latifolia (broadleaf buttonweed, BOILF); assay: Field trial, % visual weed control; type: in vivo
Source text: as §1

[12] = tested on: Amaranthus palmeri (Palmer pigweed, AMAPA); assay: Field trial, % visual weed control; type: in vivo
Source text: as §1

[13] = tested on: Brachiaria decumbens (Surinam grass, BRADC); assay: Field trial, % visual weed control; type: in vivo; conditions: 12DAA, 720 g ae/ha alone
Source text: as §1

[14] = tested on: Conyza bonariensis (hairy fleabane, ERIBO); conditions: field trial
Description: (§2) Field trials were conducted under normal field conditions in multiple states in the United States, including but not limited to Alabama, Mississipi, South Carolina and Tennessee; and in Brazil, including but not limited to the states of Goias, Mato Grosso, Parana, Rio Grande do Sul, and Sao Paulo. Trials were established as RCB (randomized complete block) design, with 3-4 replicates per treatment, and plot sizes varying from 2-3 meters (m) wide by 4-8 m long. Treatments were applied with small plot backpack sprayers, using pressurized carbon dioxide (CO2) as propellant. Pressure varied from 22-40 PSI, with spray tips typically of a Flat Fan type applying water diluent at 150 L/ha. Boom sizes varied from 2-3 m in width. Treatments were applied to soybean, cotton or fallow crop land. Weed sizes varied, but all treatments were applied as post-emergence treatments to weeds from 2 leaf to 2 tiller growth stages varying from 2-15 inches (in) in height. No additional adjuvant was mixed with the treatments applied in the field
(§3) The treated plots and control plots were rated blind at various intervals after application.
(§4) Colby's equation was used to determine the herbicidal effects expected from the mixtures (Colby, S. R. Calculation of the synergistic and antagonistic response of herbicide combinations. Weeds 1967 15, 20-22). A t-test (alpha=0.05) between Colby predictions and observed combinations was used to test for significant differences indicating synergy or antagonism.
(§5) The following equation was used to calculate the expected activity of mixtures containing two active ingredients, A and B:
(§6) Expected=A+B−(A×B/100) • A=observed efficacy of active ingredient A at the same concentration as used in the mixture; • B=observed efficacy of active ingredient B at the same concentration as used in the mixture.

[15] = tested on: Conyza canadensis (horseweed, ERICA); conditions: field trial
Description: as §2, §3, §4, §5, §6

[16] = tested on: Elymus repens (quackgrass, AGRRE); assay: Greenhouse trial, % visual weed control; type: in vivo; conditions: 14DAA, 210 g ae/ha alone
Description: (§7) Greenhouse trials were conducted under controlled environment greenhouse conditions, with plants grown in pots with Metromix soil and bottom watered. Treatments were applied with 3 replicates per treatment, using a track sprayer with 2 flat fan nozzles at 40 pounds per square inch (PSI). Water was used as the diluent at 140 liters per hectare (L/ha), with weeds being 2-4 leaf stage and approximately 3 inches in height at treatment.

[17] = tested on: Ambrosia artemisiifolia (common ragweed, AMBEL); assay: Greenhouse trial, % visual weed control; type: in vivo; conditions: 14DAA, 105 g ae/ha alone
Description: as §7

[18] = tested on: Chenopodium album (common lambsquarter, CHEAL); assay: Greenhouse trial, % visual weed control; type: in vivo; conditions: 14DAA
Description: as §7

[19] = tested on: Abutilon theophrasti (velvetleaf, ABUTH); assay: Greenhouse trial, % visual weed control; type: in vivo; conditions: 14DAA
Description: as §7

## CNC.O=C(O)CNCP(=O)(O)O [Glyphosate-DMA, dimethylamine salt of N-(phosphonomethyl)glycine]
[1]
  Mean % Weed Control: 48.8%
[2]
  Mean % Weed Control: 68.3%
[3]
  Mean % Weed Control: 86.3%
[4]
  Mean % Weed Control: 47.5%
[5]; 7DAA, 960 g ae/ha alone
  Mean % Weed Control: 0.0%
[5]; 16DAA, 480 g ae/ha alone
  Mean % Weed Control: 0.0%
[5]; 28DAA, 480 g ae/ha alone
  Mean % Weed Control: 0.0%
[5]; 28DAA, 960 g ae/ha alone
  Mean % Weed Control: 0.0%
[5]; 30DAA, 480 g ae/ha alone
  Mean % Weed Control: 0.0%
[6]; 12DAA
  Mean % Weed Control: 50.0%
[6]; 15DAA
  Mean % Weed Control: 62.5% and 43.8%
[6]; 18DAA
  Mean % Weed Control: 51.3%
[6]; 27DAA
  Mean % Weed Control: 70.0%
[6]; 28DAA
  Mean % Weed Control: 63.8%
[6]; 35DAA
  Mean % Weed Control: 67.5%
[7]
  Mean % Weed Control: 53.8%
[8]; 7DAA, 800 g ae/ha alone
  Mean % Weed Control: 43.8%
[8]; 18DAA, 800 g ae/ha alone
  Mean % Weed Control: 50.0%
[8]; 21DAA, 800 g ae/ha alone
  Mean % Weed Control: 41.3%
[8]; 24DAA, 480 g ae/ha alone
  Mean % Weed Control: 50.0%
[9]
  Mean % Weed Control: 87.0%
[10]
  Mean % Weed Control: 85.0%
[11]; 18DAA, 800 g ae/ha alone
  Mean % Weed Control: 47.5%
[11]; 21DAA, 800 g ae/ha alone
  Mean % Weed Control: 79.5%
[11]; 24DAA, 480 g ae/ha alone
  Mean % Weed Control: 51.7%
[11]; 27DAA, 800 g ae/ha alone
  Mean % Weed Control: 72.5%
[11]; 28DAA, 800 g ae/ha alone
  Mean % Weed Control: 77.5%
[12]; 7DAA, 840 g ae/ha alone
  Mean % Weed Control: 52.5%
[12]; 13DAA, 1120 g ae/ha alone
  Mean % Weed Control: 60.0%
[12]; 21DAA, 1120 g ae/ha alone
  Mean % Weed Control: 61.3%
[13]
  Mean % Weed Control: 73.8%
[14]; 6DAA, 360 g ae/ha alone
  Mean % Weed Control: 6.3%
[14]; 6DAA, 720 g ae/ha alone
  Mean % Weed Control: 5.0%
[14]; 6DAA, 1080 g ae/ha alone
  Mean % Weed Control: 12.5%
[14]; 7DAA, 800 g ae/ha alone
  Mean % Weed Control: 13.8% and 11.3%
[14]; 10DAA, 800 g ae/ha alone
  Mean % Weed Control: 41.3%
[14]; 20DAA, 800 g ae/ha alone
  Mean % Weed Control: 35.0%
[14]; 21DAA, 800 g ae/ha alone
  Mean % Weed Control: 36.3%
[14]; 28DAA, 800 g ae/ha alone
  Mean % Weed Control: 53.8% and 32.5% and 33.8%
[14]; 31DAA, 800 g ae/ha alone
  Mean % Weed Control: 38.8%
[14]; 36DAA, 800 g ae/ha alone
  Mean % Weed Control: 75.0% and 55.0%
[15]; 10DAA, 960 g ae/ha alone
  Mean % Weed Control: 10%
[15]; 14DAA, 840 g ae/ha alone
  Mean % Weed Control: 67.5%
[15]; 15DAA, 960 g ae/ha alone
  Mean % Weed Control: 15%
[15]; 21DAA, 840 g ae/ha alone
  Mean % Weed Control: 68.8%
[15]; 28DAA, 840 g ae/ha alone
  Mean % Weed Control: 78.3%
[15]; 31DAA, 960 g ae/ha alone
  Mean % Weed Control: 51.7%
[16]
  Mean % Weed Control: 12.5%
[17]
  Mean % Weed Control: 26.7%
[18]; 105 g ae/ha alone
  Mean % Weed Control: 0.0%
[18]; 210 g ae/ha alone
  Mean % Weed Control: 21.7%
[18]; 420 g ae/ha alone
  Mean % Weed Control: 70.0%
[19]; 105 g ae/ha alone
  Mean % Weed Control: 0.0%
[19]; 210 g ae/ha alone
  Mean % Weed Control: 3.3%
[19]; 420 g ae/ha alone
  Mean % Weed Control: 63.3%
[19]; 840 g ae/ha alone
  Mean % Weed Control: 85.0%
